Measured values published in article PMC10693528, “A high-throughput metabolomics in vitro platform for the characterization of hepatotoxicity” (Cell Biology and Toxicology, 2023).
Marks after values point to notes of the source that are not given here.

Key:
[1] = test system: HepG2 cells; assay: Cytotoxicity (CellTox Green) in parallel with metabolomics experiments; details: intermediate concentration (C3; C2 for aroclor), 48 h
Method: Commercially available cytotoxicity (CellTox™ Green) and ATP content based (CellTiter-Glo®) assays (Promega GmbH, Walldorf, Germany) were multiplexed in a single 96-well plate following the manufacturer’s instructions. For positive controls, lysis solution 25X was added in wells containing vehicle control treated cells (0.5% DMSO). Then, 10X CellTox Green reagent was added in all wells, plates were shaken for 1 min, and incubated in the dark for 15 min at room temperature. […] Afterwards, wells were washed with PBS, 100 μL of Dulbecco’s MEM media were added to each well and subsequently 100 μL of 1X CellTiter-Glo were added. Plates were shaken for 2 min and incubated in the dark for 8 min at room temperature. Luminescence was measured in the GloMax®-Multi Detection System (Promega) and was normalized to the values of the vehicle control. Cytotoxicity and ATP cell viability analysis were carried out for range finder pre-tests and in parallel with metabolomics experiments in plates handled and treated exactly as the ones used for metabolite profiling.

[2] = test system: HepG2 cells; assay: Range finder cell viability (CellTiter-Glo, ATP) dose response; format: cell-based, human; details: estimated from ATP dose response curve, 48 h, rounded; for EC50: Homo sapiens, HepG2
Method: (§1) HepG2 cells (ECACC, UK, maximum passage number 9) were maintained and grown on Dulbecco’s MEM media supplemented with 1% v/v of penicillin/streptomycin, L-glutamine (200 mM, 1% v/v), non-essential amino acids (100x, 1% v/v), and 10% FBS (PAN-Biotech, Aidenbach, Germany) in 75 cm^2 culture flasks (TPP, Switzerland). For cell passaging (~ 80% confluency) media was removed and cells were washed twice with pre-warmed calcium and magnesium free Dulbecco’s PBS (PAN-Biotech, Aidenbach, Germany). Trypsin was used for cell detachment. Then, 20 mL culture medium was added, and single-cell suspensions were obtained by passing the suspension through a Combitip (Eppendorf, Germany). A fraction of the cell suspension was then transferred to a new culture vessel. For experiments, 15,000 cells per well (passage 5-9) were seeded in 96-well flat-bottom plates (TPP, Switzerland) and incubated for 24 h for cell attachment (37 °C and 5% CO^2). Afterwards, culture media were exchanged, test substances applied, and plates incubated for 48 h (37 °C and 5% CO^2).
In order to define appropriate dose levels, range finder experiments were performed prior to metabolome experiments. Substances were administered to HepG2 cells in increasing concentrations and incubated for 48 h (6 replicates per concentration). Viability and cytotoxicity tests were performed as described previously. Luminescence values resulting from CellTiter-Glo® assays were used to build dose response curves. Curve fitting and effective concentrations (ECs) values were calculated in R using three-parameter Weibull model (W1.3). To obtain a full metabolome-based dose-response effect, five concentrations (EC1, EC5, EC15, EC50, EC85) were selected for metabolome experiments (Table 2). […] Calculated ECs values were rounded to the nearest integer number for dose selection.

[3] = Cell viability (ATP, CellTiter-Glo) in parallel with metabolomics experiments; details: human, Percentage of viability (ATP) compared to the vehicle control, n = 6
Method: as §1
For each substance, one 96-well plate was set up with 6 replicates per concentration, 12 replicates for vehicle controls (yielding a final concentration of 0.5% DMSO in the well), 6 replicates for positive controls (Bezafibrate 1000 μM), and 6 replicates for blank controls (media without cells). To minimize potential evaporation, the outer rows and columns of the plate were omitted and filled with PBS instead. Reference samples prepared from lyophilized HepG2 cells were measured in parallel throughout the entire analytical process (technical replicates). […] Lyophilized HepG2 cells reference samples were used to account for variability between plates and in concentration series for linearity checks. After 48 h, the assays were stopped by washing the wells once with 100 μL 0.9% NaCl followed by snap freezing the plates on liquid nitrogen for 5 s. Plates were placed immediately on dry ice and 50 μL ice-cooled isopropanol 80% (v/v) were added to quench metabolism and precipitate proteins. Plates were stored at − 80 °C until LC/ MS analysis.

In the case of `O=C(O)c1cc(Oc2ccc(C(F)(F)F)cc2Cl)ccc1[N+](=O)[O-]` [Acifluorfen], the “cytotoxicity (CellTox Green)” value [1] is reported as “low cytotoxicity”, the EC50 [2] is reported as 500 µM and the EC1 [2] is reported as 50 µM. The EC5 [2] was 100 µM, the EC15 [2] was 200 µM and the EC85 [2] was 800 µM. The viability at 48 h ([3]; HepG2 cells, C1, C1, 48 h) was 105 ± 4.2%, the viability at 48 h ([3]; HepG2 cells, C2, C2, 48 h) was 105 ± 4.8% and the viability at 48 h ([3]; HepG2 cells, C3, C3, 48 h) was 99.9 ± 1.3%. The viability at 48 h ([3]; HepG2 cells, C4, C4, 48 h) was 58.4 ± 1.5% and the viability at 48 h ([3]; HepG2 cells, C5, C5, 48 h) was 27.8 ± 1.3%.
For `CC(=O)N1CCN(c2ccc(OCC3COC(Cn4ccnc4)(c4ccc(Cl)cc4Cl)O3)cc2)CC1` (stereo not drawn) [Ketoconazole], the EC50 [2] was 10 µM, the EC1 [2] was 5^b μM and the EC5 [2] was 0.2 µM. The EC15 [2] was 1 µM, the EC85 [2] was 50 µM and the viability at 48 h ([3]; HepG2 cells, C1, C1, 48 h) was 102 ± 3.1%. The viability at 48 h ([3]; HepG2 cells, C2, C2, 48 h) was 102 ± 0.9%, the viability at 48 h ([3]; HepG2 cells, C3, C3, 48 h) was 91.2 ± 1.5% and the viability at 48 h ([3]; HepG2 cells, C4, C4, 48 h) was 64.7 ± 1.5%. For the same compound, the viability at 48 h ([3]; HepG2 cells, C5, C5, 48 h) was 28.2 ± 1.9%.
With `CCC(CC)Nc1c([N+](=O)[O-])cc(C)c(C)c1[N+](=O)[O-]` [Pendimethalin] the “cytotoxicity (CellTox Green)” value [1] was “low cytotoxicity”, the EC50 [2] was 94 µM and the EC1 [2] was 24 µM. The EC5 [2] was 39 µM, the EC15 [2] was 56 µM and the EC85 [2] was 157 µM. The viability at 48 h ([3]; C1, C1, 48 h) was 98.3 ± 3.9%, the viability at 48 h ([3]; C2, C2, 48 h) was 100 ± 2.9% and the viability at 48 h ([3]; C3, C3, 48 h) was 82.4 ± 4.9%. For the same compound, the viability at 48 h ([3]; C4, C4, 48 h) was 36.1 ± 3.2% and the viability at 48 h ([3]; C5, C5, 48 h) was 18.5 ± 3.2%.
For `Cc1cccc(Nc2cc(Cl)nc(SCC(=O)O)n2)c1C` [Wy-14643], the “cytotoxicity (CellTox Green)” value [1] was “low cytotoxicity”, the EC50 [2] was 500 µM and the EC1 [2] was 25 µM. It also gave an EC5 [2] of 50 µM, an EC15 [2] of 150 µM and an EC85 [2] of 1000 µM. It also gave a viability at 48 h ([3]; HepG2 cells, C1, C1, 48 h) of 101 ± 3.8%, a viability at 48 h ([3]; HepG2 cells, C2, C2, 48 h) of 97.1 ± 3.1% and a viability at 48 h ([3]; HepG2 cells, C3, C3, 48 h) of 94.6 ± 1.8%. It also gave a viability at 48 h ([3]; HepG2 cells, C4, C4, 48 h) of 46.4 ± 2% and a viability at 48 h ([3]; HepG2 cells, C5, C5, 48 h) of 23.2 ± 1.1%.
For `O=c1cc(-c2ccccc2)oc2ccc3ccccc3c12` [β-naphthoflavone], the “cytotoxicity (CellTox Green)” value [1] was “low cytotoxicity”, the EC50 [2] was 100 µM and the EC1 [2] was 0.1 µM. For the same compound, the EC5 [2] was 1 µM, the EC15 [2] was 10 µM and the EC85 [2] was 700 µM. The viability at 48 h ([3]; HepG2 cells, C1, C1, 48 h) was 103 ± 4.3%, the viability at 48 h ([3]; HepG2 cells, C2, C2, 48 h) was 114 ± 3.7% and the viability at 48 h ([3]; HepG2 cells, C3, C3, 48 h) was 104 ± 1.6%. It also gave a viability at 48 h ([3]; HepG2 cells, C4, C4, 48 h) of 34.5 ± 3.4% and a viability at 48 h ([3]; HepG2 cells, C5, C5, 48 h) of 15 ± 2.1%.
